Results as given in ChEMBL document CHEMBL4732085, “Di-aryl guanidinium derivatives: Towards improved α2-Adrenergic affinity and antagonist activity” (Eur J Med Chem, 2021).

Experiments:
[1] = biological target: T1, Adrenergic receptor alpha-2 (Homo sapiens, UniProt P08913+P18825+P18089); assay: Displacement of [3H]-RX821002 from adrenergic alpha 2 receptor in human brain membrane by liquid scintillation spectroscopy; type: cell membranes
T1 sequence (P08913 whole entry): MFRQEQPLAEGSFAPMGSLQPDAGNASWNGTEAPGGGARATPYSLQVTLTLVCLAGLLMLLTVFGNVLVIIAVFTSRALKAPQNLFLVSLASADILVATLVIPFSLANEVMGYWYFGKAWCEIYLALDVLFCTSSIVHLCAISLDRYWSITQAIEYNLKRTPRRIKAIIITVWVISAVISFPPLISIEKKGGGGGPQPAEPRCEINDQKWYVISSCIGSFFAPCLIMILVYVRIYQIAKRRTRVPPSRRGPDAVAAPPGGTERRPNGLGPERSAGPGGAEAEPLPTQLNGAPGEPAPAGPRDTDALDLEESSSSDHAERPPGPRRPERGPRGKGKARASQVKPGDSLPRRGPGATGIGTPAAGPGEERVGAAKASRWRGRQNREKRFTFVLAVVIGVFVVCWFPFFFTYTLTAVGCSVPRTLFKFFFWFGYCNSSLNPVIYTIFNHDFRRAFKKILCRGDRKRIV
T1 sequence (P18825 whole entry): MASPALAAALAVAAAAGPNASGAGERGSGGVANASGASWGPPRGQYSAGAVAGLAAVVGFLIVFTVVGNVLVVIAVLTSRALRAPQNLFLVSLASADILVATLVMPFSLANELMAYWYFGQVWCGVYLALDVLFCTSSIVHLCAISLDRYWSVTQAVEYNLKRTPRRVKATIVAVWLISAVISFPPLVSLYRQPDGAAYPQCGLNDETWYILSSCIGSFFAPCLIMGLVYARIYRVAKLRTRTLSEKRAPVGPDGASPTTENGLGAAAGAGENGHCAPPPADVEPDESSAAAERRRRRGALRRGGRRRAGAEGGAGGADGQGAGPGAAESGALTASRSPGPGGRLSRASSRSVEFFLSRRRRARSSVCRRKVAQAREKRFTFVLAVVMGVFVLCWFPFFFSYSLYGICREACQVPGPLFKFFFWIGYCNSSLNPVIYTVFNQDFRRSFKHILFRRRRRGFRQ
T1 sequence (P18089 whole entry): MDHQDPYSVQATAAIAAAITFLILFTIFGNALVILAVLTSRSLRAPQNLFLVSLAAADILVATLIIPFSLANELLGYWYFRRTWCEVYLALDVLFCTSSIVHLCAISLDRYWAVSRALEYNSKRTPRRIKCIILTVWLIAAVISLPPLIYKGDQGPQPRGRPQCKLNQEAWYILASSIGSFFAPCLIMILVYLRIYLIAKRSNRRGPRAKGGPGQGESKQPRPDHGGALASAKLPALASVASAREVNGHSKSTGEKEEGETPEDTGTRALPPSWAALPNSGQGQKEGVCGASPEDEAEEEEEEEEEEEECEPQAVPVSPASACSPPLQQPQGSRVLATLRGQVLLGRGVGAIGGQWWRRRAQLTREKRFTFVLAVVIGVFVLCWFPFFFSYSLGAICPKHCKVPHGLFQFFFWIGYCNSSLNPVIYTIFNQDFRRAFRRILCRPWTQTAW

[2] = biological target: T1, Adrenergic receptor alpha-2; assay: Antagonist activity at adrenergic alpha 2 receptor in human brain membrane assessed as inhibition of UK14304-induced stimulation of [35S]GTPgammaS binding by liquid scintillation spectroscopy (reference value: 1.77 +/- […]); type: functional, cell membranes
[3] = biological target: T2, Adrenergic receptor alpha-2 (Homo sapiens) (UniProt P08913+P18825+P18089); assay: Antagonist activity at adrenergic alpha 2 receptor in human brain membrane assessed as inhibition of UK14304-induced stimulation of [35S]GTPgammaS binding at 10 uM by liquid scintillation spectroscopy (reference value: 153 +/- 4%); type: functional, cell membranes; conditions: filed as antagonist
[4] = biological target: T2, Adrenergic receptor alpha-2 (Homo sapiens); assay: Agonist activity at adrenergic alpha 2 receptor in human brain membrane assessed as stimulation of [35S]GTPgammaS binding at 10 uM by liquid scintillation spectroscopy relative to control; type: functional, cell membranes; conditions: filed as agonist
[5] = biological target: T1, Adrenergic receptor alpha-2; assay: Agonist activity at adrenergic alpha 2 receptor in human brain membrane assessed as stimulation of [35S]GTPgammaS binding by liquid scintillation spectroscopy; type: functional, cell membranes
[6] = biological target: T1, Adrenergic receptor alpha-2; assay: Agonist activity at adrenergic alpha 2 receptor in human brain membrane assessed as stimulation of [35S]GTPgammaS binding in presence of adrenergic alpha 2 receptor antagonist RX821002 by liquid scintillation spectroscopy; type: functional, cell membranes
[7] = biological target: T2, Adrenergic receptor alpha-2 (Homo sapiens); assay: Agonist activity at adrenergic alpha 2 receptor in human brain membrane assessed as stimulation of [35S]GTPgammaS binding at 10 uM in presence of adrenergic alpha 2 receptor antagonist RX821002 by liquid scintillation spectroscopy; type: functional, cell membranes; conditions: filed as agonist

| SMILES | Ki [1] | EC50 [2] | Emax [3] | further results |
| --- | --- | --- | --- | --- |
| Cl.Cl.N=C(N)Nc1ccc(Cc2ccc(NC3=NCCN3)nc2)cc1 | 674 nM |  |  |  |
| Cl.Cl.N=C(NCc1ccco1)Nc1ccc(Cc2ccc(NC(=N)NCc3ccco3)cc2)cc1 | 355 nM |  |  |  |
| CCCNC(=N)Nc1ccc(Cc2ccc(NC3=NCCN3)cc2)cn1.Cl.Cl | 67.6 nM | 30.8 µM | 122% |  |
| COC1(C2=NCCN2)COc2ccccc2O1 (stereo unspecified) |  | 87.2 µM | 98% |  |
| N=C(N)Nc1ccc2c(c1)CCCC2 | 77.6 nM |  |  |  |
| Cl.Cl.N=C(NCc1ccco1)Nc1ccc(Cc2ccc(NC3=NCCN3)nc2)cc1 | 433 nM |  |  |  |
| N=C(N)NC1C=C2CCCCC2=CN1 (stereo unspecified) | 165.9 nM |  |  |  |
| Cl.Cl.N=C(NCc1ccco1)Nc1ccc(CCc2ccc(NC3=NCCN3)cc2)cc1 | 418 nM |  |  |  |
| CCCNC(=N)Nc1ccc(Cc2ccc(NC3=NCCN3)nc2)cn1.Cl.Cl | 89.9 nM | 10.2 µM | 127% |  |
| Cl.Cl.N=C(N)Nc1ccc(Cc2ccc(NC3=NCCN3)cc2)cn1 | 86.8 nM | 39.9 µM | 140% |  |
| c1cc2c(cc1NC1=NCCN1)CCCC2 | 46.8 nM |  |  |  |
| CCCNC(=N)Nc1ccc(Cc2ccc(NC(=N)NCCC)cc2)cc1.Cl.Cl | 742 nM |  |  |  |
| CCCNC(=N)Nc1ccc(Cc2ccc(NC3=NCCN3)cc2)cc1.Cl.Cl | 0.82 nM | 30 µM | 171% | Emax [4]: 139%; EC50 [5]: 46 µM; EC50 [6]: 487 µM; Emax [7]: 110% |
| Cl.Cl.N=C(NCc1ccco1)Nc1ccc(Cc2ccc(NC3=NCCN3)nc2)cn1 | 263 nM |  |  |  |
| Cl.Cl.N=C(NCc1ccco1)Nc1ccc(Cc2ccc(NC3=NCCN3)cc2)cc1 | 1.77 nM | 11.6 µM | 155% | Emax [4]: 168%; EC50 [5]: 534 µM; EC50 [6]: 2356 µM; Emax [7]: 130% |
| CCCNC(=N)Nc1ccc(CCc2ccc(NC3=NCCN3)cc2)cc1.Cl.Cl | 1745 nM |  |  |  |
| Cl.Cl.N=C(NCCO)Nc1ccc(Cc2ccc(NC(=N)NCCO)cc2)cc1 | 2485 nM |  |  |  |
| Cl.Cl.N=C(N)Nc1ccc(Cc2ccc(NC3=NCCN3)nc2)cn1 | 138 nM |  |  |  |
| CN(C)c1ccc(/N=C(/N)NCc2ccco2)cc1 | 231.8 nM |  |  |  |
| Cl.Cl.N=C(N)Nc1ccc(Cc2ccc(N=C3NCCN3)cc2)cc1 | 12.3 nM | 20.2 µM | 110% | Emax [4]: 126%; EC50 [5]: 18 µM; EC50 [6]: 64020 µM; Emax [7]: 122% |
| Cl.Cl.N=C(NCc1ccco1)Nc1ccc(Cc2ccc(NC3=NCCN3)cc2)cn1 | 33.9 nM | 52.3 µM | 96% | Emax [4]: 149%; EC50 [5]: 194 µM; EC50 [6]: 252 µM; Emax [7]: 154% |
| CCCNC(=N)Nc1ccc(Cc2ccc(NC3=NCCN3)nc2)cc1.Cl.Cl | 120 nM | 4.14 µM | 139% |  |
| Cl.Cl.N=C(N)Nc1ccc(CCc2ccc(N=C3NCCN3)cc2)cc1 | 175 nM |  |  |  |
